According to patent US5808139A (Ligand Pharmaceuticals Incorporated, priority 1994, dated 1998):
pIC50, pKd: −log10 of the molar value.

Experiments:
[1] = test system: human progesterone receptor altered at the Tau-1 location; assay: Co-transfection assay in CV-1 cells, progesterone receptor altered at Tau-1, antagonist activity; assay type: cell-based; conditions: for Efficacy (% maximal response relative to RU-486), CV-1 cells: antagonist activity; for pIC50: concentration required to reduce the maximal response by 50%, read-out: Potency (IC50), CV-1 cells
Description: This assay is described in further detail in U.S. Pat. Nos. 4,981,784 and 5,071,773, which are incorporated herein by reference. The co-transfection assay provides a method for identifying functional ligands (either agonists which mimic, or antagonists which inhibit, the effect of hormones) for ligand-responsive receptor proteins.
The co-transfection assay provides a mechanism to evaluate ability of a compound to function as an agonist or antagonist of the activity modulated by an intracellular receptor. The co-transfection assay mimics an in vivo system in the laboratory. In the co-transfection assay, a cloned gene for an intracellular receptor is introduced by transfection (a procedure to induce cells to take up foreign genes) into a background cell substantially devoid of endogenous intracellular receptors. This introduced gene directs the recipient cells to make the intracellular receptor protein. A second gene is also introduced (co-transfected) into the same cells in conjunction with the intracellular receptor gene. This second gene functions as a reporter for the transcription-modulating activity of the target intracellular receptor. The reporter acts as a surrogate for the products normally expressed by a gene under control of the target receptor and its natural hormone.
A preferred reporter gene is one which expresses the firefly enzyme luciferase. The co-transfection assay can detect small molecule agonists or antagonists of target intracellular receptors. Exposing the cells to an agonist ligand increases reporter activity in the transfected cells that can be conveniently measured, reflecting ligand-dependent, intracellular receptor-mediated increases in reporter transcription. To detect antagonists, the co-transfection assay is carried out in the presence of a constant concentration of an agonist known to induce a defined reporter signal. Increasing concentrations of a test antagonist will decrease the reporter signal. The co-transfection assay is therefore useful to detect both agonists and antagonists of specific intracellular receptors. It determines not only whether a compound interacts with a particular intracellular receptor, but also whether this interaction mimics (agonizes) or blocks (antagonizes) the effects of the natural regulatory molecules on target gene expression.
Co-transfected cells are exposed to a medium to which is added the potential ligand that is being evaluated. If the candidate ligand diffuses into the cell and binds to the receptor and the resulting complex functions as an agonist, it binds to the co-transfected reporter gene and initiates transcription. When that gene is one that expresses, for example, luciferase, luciferase is produced which catalyzes a light-emitting reaction with its substrate luciferin. Thus, after cell lysis and the introduction of luciferin, the amount of light produced relative to the concentration of candidate ligand used in the assay provides a measure of the potency and efficacy of the compound tested. Antagonist activity is evaluated by adding the candidate ligand and a known agonist to the co-transfected cells.
The receptor cDNA was introduced in a mammalian expression vector under the control of the Rous Sarcoma virus LTR. […] A reporter vector was also transfected, containing a firefly luciferase gene under the control of the hormone-responsive promoter. […] The level of luciferase activity was then measured in cell extracts. Light emission is directly proportional to the effectiveness of the hormone-receptor complex in activating gene expression.
A total of three replicates per concentration point were tested for each compound, and the EC50 was calculated for each positive response. Both agonist and antagonist activity for each test compound was determined in parallel. […]

[2] = test system: progesterone receptor (T47D cells); assay: Antagonist assay in T47D (human breast cancer) cells (Tables 1 and 2); assay type: cell-based; conditions: for Efficacy (% maximal response relative to RU-486), T47D cells: antagonist activity; for pIC50: concentration required to reduce the maximal response by 50%, read-out: Potency (IC50), T47D cells
Description: The functional activities of the cyclocymopol analogues in the human breast cell line, T47D, were also investigated. T47D cells have proven to be a particularly useful model to investigate the molecular actions of sex steroids because they contain endogenous functional receptors for, and respond to, progestins, and their respective antagonists. […] In T47D cells, progestins induce de novo synthesis of a plasma-associated alkaline phosphatase, which has been reported to be similar, if not identical, to the alkaline phosphatase present in the normal breast and human milk. These tests were conducted according to the following illustrative example.
The assay was also run using T47D (human breast cancer) cells.

[3] = biological target: T1, human progesterone receptor (Homo sapiens, UniProt P06401); assay: Progesterone receptor binding (displacement of 3H-progesterone, whole cell extract of transfected CV-1 cells); design: expressed in transfected cells; host or cells: CV-1 cells (calcium phosphate transfection), whole cell extract
T1 sequence (P06401 1-933): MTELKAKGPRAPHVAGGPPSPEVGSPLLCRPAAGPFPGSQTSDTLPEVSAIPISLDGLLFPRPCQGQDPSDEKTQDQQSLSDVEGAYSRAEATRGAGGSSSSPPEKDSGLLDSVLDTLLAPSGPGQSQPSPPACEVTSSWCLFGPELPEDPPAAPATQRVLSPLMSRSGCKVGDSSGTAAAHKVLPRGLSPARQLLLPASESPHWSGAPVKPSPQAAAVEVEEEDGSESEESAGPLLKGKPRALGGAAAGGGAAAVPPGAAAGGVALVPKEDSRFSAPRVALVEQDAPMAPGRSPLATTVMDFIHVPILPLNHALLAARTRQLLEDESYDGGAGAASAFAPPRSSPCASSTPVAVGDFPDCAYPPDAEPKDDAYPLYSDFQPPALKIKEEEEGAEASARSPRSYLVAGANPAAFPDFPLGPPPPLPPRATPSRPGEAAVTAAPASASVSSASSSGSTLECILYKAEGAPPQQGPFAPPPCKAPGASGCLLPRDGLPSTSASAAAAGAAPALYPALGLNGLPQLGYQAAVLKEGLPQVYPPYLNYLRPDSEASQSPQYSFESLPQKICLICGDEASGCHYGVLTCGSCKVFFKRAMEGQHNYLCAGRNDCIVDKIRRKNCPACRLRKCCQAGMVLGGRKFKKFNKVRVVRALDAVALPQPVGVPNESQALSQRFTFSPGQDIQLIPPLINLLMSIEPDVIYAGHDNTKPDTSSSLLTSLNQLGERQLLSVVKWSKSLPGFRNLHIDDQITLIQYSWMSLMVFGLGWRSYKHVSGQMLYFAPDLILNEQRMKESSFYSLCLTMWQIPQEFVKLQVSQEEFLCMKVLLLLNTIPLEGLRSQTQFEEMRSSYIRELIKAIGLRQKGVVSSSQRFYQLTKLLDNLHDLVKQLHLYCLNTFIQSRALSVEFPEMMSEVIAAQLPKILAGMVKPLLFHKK
Description: These tests were conducted according to the following illustrative example.
CO2 for 40 hours prior to harvest.
After incubation, cells were harvested and washed in phosphate buffered saline. Whole cell receptor extract was prepared by homogenizing the harvested cells in Tris-HCl buffer, pH=7.4, containing 30% glycerol, 1 mM EDTA, 12 mM monothioglycerol, 1 mM PMSF, and 0.5M potassium chloride. The homogenate was incubated at 4° C. for 60 min with resuspension every 10 min. The suspension was centrifuged (105,000×g, 60 min) and the supernatant was collected and flash frozen in liquid nitrogen and stored frozen at -70° C.
To a […] final volume incubation mixture, […] of 7.5% (w/v) dextran-coated charcoal suspension in gelatin phosphate buffer was added. The mixture was vortexed and incubated at 4° C. for 10 min and then centrifuged at 3000 rpm for 10 min. The amount of bound tritiated hormone was determined by liquid scintillation spectrophotometry of an aliquot of the supernatant. […]

| Compound | Efficacy (% maximal response relative to RU-486), CV-1 cells [1] | pIC50 [1] | Efficacy (% maximal response relative to RU-486), T47D cells [2] | pIC50 [2] | pKd [3] |
| --- | --- | --- | --- | --- | --- |
| C=C1C[C@H](CCC2OCCO2)CC(C)(C)[C@@H]1Cc1cc(OC)c(Br)cc1O (relative stereo) [W, cis-1-Methylidene-2-(2'-hydroxy-4'-bromo-5'-methoxyphenyl)methyl-3,3-dimethyl-5-(propanal-1,3-dioxolane)cyclohexane] | 85% | 5.54 | 85% | 6.42 | 6.44 |
| C=C1C[C@H](CCCO)CC(C)(C)[C@@H]1Cc1cc(OC)c(Br)cc1O (relative stereo) [X, cis-1-Methylidene-2-(2'-hydroxy-4'-bromo-5'-methoxyphenyl)methyl-3,3-dimethyl-5-(3-hydroxypropyl)cyclohexane] | 99% | 5.96 | 84% | 6.68 | 6.42 |
| C=C1CCCC(C)(C)C1Cc1cc(OC)c(Br)cc1OC(C)=O (stereo in doubt) [B, (3S)-1-Debromocyclocymopol monomethyl ether, acetate] | 45% | 6.40 | 65% | 7.07 | 7.46 |
| C=C1CCCC(C)(C)C1Cc1cc(OC)c(Br)cc1OC(=O)OC (stereo in doubt) [Compound D, (3S)-1-Debromocyclocymopol monomethyl ether, methyl carbonate] | 45% | 6.35 | 55% | 6.82 | 7.30 |
| C=C1CCCC(C)(C)C1Cc1cc(OC)c(Br)cc1OC(=O)OC (stereo in doubt) [R, (3R)-1-Debromocyclocymopol monomethyl ether, methyl carbonate] | 95% | 5.91 | 85% | 6.60 | 6.64 |
| C=C1CCCC(C)(C)C1Cc1cc(OC)c(Br)cc1OC(=O)c1ccccc1 (stereo in doubt) [U, (3R)-1-Debromocyclocymopol monomethyl ether, benzoate] | 95% | 5.80 | 80% | 6.52 | 6.72 |
| C=C1CCCCC1Cc1cc(OC)c(Br)cc1O (stereo not shown) [Compound S, 1-Methylidene-2-(2'-hydroxy-4'-bromo-5'-methoxyphenyl)methylcyclohexane] | 90% | 5.82 | 85% | 6.40 | 6.46 |
| COc1cc(CC2C(C)(C)CC(C)=CC23CC3)c(OC(C)=O)cc1Br (stereo not shown) [DD, 8-(2'-Acetoxy-4'-bromo-5'-methoxyphenyl)methyl-5,7,7-trimethylspiro[2.5]oct-4-ene] | 26% | 6.80 | 68% | 6.36 | 6.98 |
| C=C1[C@H](O)C[C@@H](Br)C(C)(C)[C@@H]1Cc1cc(OC)c(Br)cc1O [E, (3R,5R)-5-Hydroxycyclocymopol monomethyl ether] | 85% | 6.35 | 85% | 6.32 | 6.03 |
| O=C1CCCCC1Cc1ccc([N+](=O)[O-])cc1 (stereo not shown) [F, 2-(4'-Nitrophenyl)methylcyclohexan-1-one] | 100% | 6.26 | 80% | 6.70 | 6.03 |
| C=C1C=C(C)CC(C)(C)C1Cc1cc(OC)c(Br)cc1OC(C)=O (stereo not shown) [H, 1-Methylidene-6-(2'-acetoxy-4'-bromo-5'-methoxyphenyl)methyl-3,5,5-trimethylcyclohex-2-ene] | 40% | 6.15 | 60% | 6.11 | 7.22 |
| C=C1C=CCC(C)(C)C1Cc1cc(OC)c(Br)cc1OC(C)=O (stereo not shown) [L, 1-Methylidene-6-(2'-acetoxy-4'-bromo-5'-methoxyphenyl)methyl-5,5-dimethylcyclohex-2-ene] | 55% | 6.08 | 75% | 6.70 | 7.05 |
| C=C1C=CCC(C)(C)C1Cc1ccc([N+](=O)[O-])c(C)c1 (stereo not shown) [M, 1-Methylidene-6-(3'-methyl-4'-nitrophenyl)methyl-5,5-dimethylcyclohex-2-ene] | 90% | 6.06 | 80% | 6.46 | 7.12 |
| CC1(C)CC=CC(=O)C1Cc1ccc([N+](=O)[O-])cc1 (stereo not shown) [MM, 6-(4'-Nitrophenyl)methyl-5.5-dimethylcyclohex-2-en-1-one] | 74% | 5.75 | 90% | 6.41 | 5.00 |
